In article PMC10088252:
Where two headings read alike, the source gives them in different places.

Experimental: Dose adjustment was allowed according to the severity of toxicity [Supplementary Table 1].
The primary endpoints were safety, ORR and DCR assessed by investigators. […] AEs referred to treatment-emergent adverse events (TEAEs) and TRAEs were assessed by investigators. Serious adverse events (SAEs) referred to AEs meeting at least one of the following criteria: event leading to death; life-threatening event; event requiring hospitalization or extension of hospital stay; event leading to persistent or evident disability or dysfunction; event leading to congenital malformation or birth defect or event which might lead to injury or that need medical treatment to avoid the above mentioned important medical events.

## O=C(Nc1ccc(Oc2ccnc3c2CCN3)c(F)c1)c1c[nH]cc(-c2ccc(F)cc2)c1=O
450 mg QD (n=12)
  TRAE Hyperhidrosis, grade 3-4: 0 n (%)
  TRAE Hyperlipidaemia, any grade: 0 n (%)
  TRAE Hyperlipidaemia, grade 3-4: 0 n (%)
  TRAE Hypertension, any grade: 0 n (%)
  TRAE Hypertension, grade 3-4: 0 n (%)
  TRAE Hypoaesthesia oral, any grade: 2 (16.7) n (%)
  TRAE Hypoaesthesia oral, grade 3-4: 0 n (%)
  TRAE Hypocalcaemia, any grade: 0 n (%)
  TRAE Hypocalcaemia, grade 3-4: 0 n (%)
  TRAE Hypotension, any grade: 0 n (%)
  TRAE Hypotension, grade 3-4: 0 n (%)
  TRAE Insomnia, any grade: 0 n (%)
  TRAE Insomnia, grade 3-4: 0 n (%)
  TRAE Leukopenia, any grade: 1 (8.3) n (%)
  TRAE Leukopenia, grade 3-4: 0 n (%)
  TRAE Nausea, any grade: 0 n (%)
  TRAE Nausea, grade 3-4: 0 n (%)
  TRAE Neuritis, any grade: 0 n (%)
  TRAE Neuritis, grade 3-4: 0 n (%)
  TRAE Occult blood, any grade: 1 (8.3) n (%)
  TRAE Occult blood, grade 3-4: 0 n (%)
  TRAE Oedema peripheral, any grade: 1 (8.3) n (%)
  TRAE Oedema peripheral, grade 3-4: 0 n (%)
  TRAE Onycholysis, any grade: 1 (8.3) n (%)
  TRAE Onycholysis, grade 3-4: 0 n (%)
  TRAE Oropharyngeal pain, any grade: 0 n (%)
  TRAE Oropharyngeal pain, grade 3-4: 0 n (%)
  TRAE PPE, any grade: 3 (25.0) n (%)
  TRAE PPE, grade 3-4: 1 (8.3) n (%)
  TRAE Paraesthesia, any grade: 1 (8.3) n (%)
  TRAE Paraesthesia, grade 3-4: 0 n (%)
  TRAE Proteinuria, any grade: 3 (25.0) n (%)
  TRAE Proteinuria, grade 3-4: 1 (8.3) n (%)
  TRAE Pruritus, any grade: 1 (8.3) n (%)
  TRAE Pruritus, grade 3-4: 0 n (%)
  TRAE Rash maculo-papular, any grade: 0 n (%)
  TRAE Rash maculo-papular, grade 3-4: 0 n (%)
  TRAE Sinus tachycardia, any grade: 0 n (%)
  TRAE Sinus tachycardia, grade 3-4: 0 n (%)
  TRAE Skin fissures, any grade: 0 n (%)
  TRAE Skin fissures, grade 3-4: 0 n (%)
  TRAE Supraventricular extrasystoles, any grade: 0 n (%)
  TRAE Supraventricular extrasystoles, grade 3-4: 0 n (%)
  TRAE Thrombocytopenia, any grade: 0 n (%)
  TRAE Thrombocytopenia, grade 3-4: 0 n (%)
  TRAE Upper respiratory tract infection, any grade: 0 n (%)
  TRAE Upper respiratory tract infection, grade 3-4: 0 n (%)
  TRAE Urinary retention, any grade: 0 n (%)
  TRAE Urinary retention, grade 3-4: 0 n (%)
  TRAE Urinary tract infection, any grade: 1 (8.3) n (%)
  TRAE Urinary tract infection, grade 3-4: 0 n (%)
  TRAE Ventricular arrhythmia, any grade: 1 (8.3) n (%)
  TRAE Ventricular arrhythmia, grade 3-4: 0 n (%)
  TRAE Ventricular extrasystoles, any grade: 0 n (%)
  TRAE Ventricular extrasystoles, grade 3-4: 0 n (%)
  TRAE Vomiting, any grade: 1 (8.3) n (%)
  TRAE Vomiting, grade 3-4: 0 n (%)
  TRAE Weight loss, any grade: 0 n (%)
  TRAE Weight loss, grade 3-4: 0 n (%)
450 mg QD cohort
  patients with TEAE of pulmonary infection leading to death, deemed unrelated: One
600 mg QD (n=10)
  TRAE Accessory nerve disorder, any grade: 0 n (%)
  TRAE Accessory nerve disorder, grade 3-4: 0 n (%)
  TRAE Activated partial thromboplastin time prolonged, any grade: 0 n (%)
  TRAE Activated partial thromboplastin time prolonged, grade 3-4: 0 n (%)
  TRAE Anaemia, any grade: 1 (10.0) n (%)
  TRAE Anaemia, grade 3-4: 0 n (%)
  TRAE Anaesthesia oral, any grade: 1 (10.0) n (%)
  TRAE Anaesthesia oral, grade 3-4: 0 n (%)
  TRAE Arrhythmia, any grade: 1 (10.0) n (%)
  TRAE Arrhythmia, grade 3-4: 0 n (%)
  TRAE Arthralgia, any grade: 0 n (%)
  TRAE Arthralgia, grade 3-4: 0 n (%)
  TRAE Asthenia, any grade: 3 (30.0) n (%)
  TRAE Asthenia, grade 3-4: 1 (10.0) n (%)
  TRAE Blister, any grade: 0 n (%)
  TRAE Blister, grade 3-4: 0 n (%)
  TRAE Chest discomfort, any grade: 0 n (%)
  TRAE Chest discomfort, grade 3-4: 0 n (%)
  TRAE Chronic kidney disease, any grade: 0 n (%)
  TRAE Chronic kidney disease, grade 3-4: 0 n (%)
  TRAE Constipation, any grade: 1 (10.0) n (%)
  TRAE Constipation, grade 3-4: 0 n (%)
  TRAE Cough, any grade: 1 (10.0) n (%)
  TRAE Cough, grade 3-4: 0 n (%)
  TRAE Decreased Ccr, any grade: 2 (20.0) n (%)
  TRAE Decreased Ccr, grade 3-4: 0 n (%)
  TRAE Decreased appetite, any grade: 1 (10.0) n (%)
  TRAE Decreased appetite, grade 3-4: 1 (10.0) n (%)
  TRAE Diarrhoea, any grade: 1 (10.0) n (%)
  TRAE Diarrhoea, grade 3-4: 0 n (%)
  TRAE Dizziness, any grade: 0 n (%)
  TRAE Dizziness, grade 3-4: 0 n (%)
  TRAE Dry mouth, any grade: 0 n (%)
  TRAE Dry mouth, grade 3-4: 0 n (%)
  TRAE Dysgeusia, any grade: 5 (50.0) n (%)
  TRAE Dysgeusia, grade 3-4: 1 (10.0) n (%)
  TRAE Dyskinesia, any grade: 1 (10.0) n (%)
  TRAE Dyskinesia, grade 3-4: 1 (10.0) n (%)
  TRAE Dysphonia, any grade: 1 (10.0) n (%)
  TRAE Dysphonia, grade 3-4: 0 n (%)
  TRAE Dyspnoea, any grade: 1 (10.0) n (%)
  TRAE Dyspnoea, grade 3-4: 1 (10.0) n (%)
  TRAE Electrocardiogram QT prolonged, any grade: 0 n (%)
  TRAE Electrocardiogram QT prolonged, grade 3-4: 0 n (%)
  TRAE Elevated ALT, any grade: 3 (30.0) n (%)
  TRAE Elevated ALT, grade 3-4: 0 n (%)
  TRAE Elevated AST, any grade: 1 (10.0) n (%)
  TRAE Elevated AST, grade 3-4: 0 n (%)
  TRAE Elevated D dimer, any grade: 1 (10.0) n (%)
  TRAE Elevated D dimer, grade 3-4: 0 n (%)
  TRAE Elevated GGT, any grade: 0 n (%)
  TRAE Elevated GGT, grade 3-4: 0 n (%)
  TRAE Elevated LDH, any grade: 0 n (%)
  TRAE Elevated LDH, grade 3-4: 0 n (%)
  TRAE Elevated alpha-HBDH, any grade: 0 n (%)
  TRAE Elevated alpha-HBDH, grade 3-4: 0 n (%)
  TRAE Elevated bilirubin, any grade: 2 (20.0) n (%)
  TRAE Elevated bilirubin, grade 3-4: 0 n (%)
  TRAE Elevated blood creatinine, any grade: 1 (10.0) n (%)
  TRAE Elevated blood creatinine, grade 3-4: 0 n (%)
  TRAE Elevated creatine phosphokinase, any grade: 0 n (%)
  TRAE Elevated creatine phosphokinase, grade 3-4: 0 n (%)
  TRAE Elevated serum urea, any grade: 0 n (%)
  TRAE Elevated serum urea, grade 3-4: 0 n (%)
  TRAE Elevated troponin, any grade: 0 n (%)
  TRAE Elevated troponin, grade 3-4: 0 n (%)
  TRAE Genital rash, any grade: 1 (10.0) n (%)
  TRAE Genital rash, grade 3-4: 0 n (%)
  TRAE Haematuria, any grade: 0 n (%)
  TRAE Haematuria, grade 3-4: 0 n (%)
  TRAE Headache, any grade: 0 n (%)
  TRAE Headache, grade 3-4: 0 n (%)
  TRAE Hyperhidrosis, any grade: 0 n (%)
  TRAE Hyperhidrosis, grade 3-4: 0 n (%)
  TRAE Hyperlipidaemia, any grade: 0 n (%)
  TRAE Hyperlipidaemia, grade 3-4: 0 n (%)
  TRAE Hypertension, any grade: 2 (20.0) n (%)
  TRAE Hypertension, grade 3-4: 1 (10.0) n (%)
  TRAE Hypoaesthesia oral, any grade: 0 n (%)
  TRAE Hypoaesthesia oral, grade 3-4: 0 n (%)
  TRAE Hypocalcaemia, any grade: 1 (10.0) n (%)
  TRAE Hypocalcaemia, grade 3-4: 0 n (%)
  TRAE Hypotension, any grade: 0 n (%)
  TRAE Hypotension, grade 3-4: 0 n (%)
  TRAE Insomnia, any grade: 0 n (%)
  TRAE Insomnia, grade 3-4: 0 n (%)
  TRAE Leukopenia, any grade: 1 (10.0) n (%)
  TRAE Leukopenia, grade 3-4: 0 n (%)
  TRAE Nausea, any grade: 0 n (%)
  TRAE Nausea, grade 3-4: 0 n (%)
  TRAE Neuritis, any grade: 2 (20.0) n (%)
  TRAE Neuritis, grade 3-4: 0 n (%)
  TRAE Occult blood, any grade: 1 (10.0) n (%)
  TRAE Occult blood, grade 3-4: 0 n (%)
  TRAE Oedema peripheral, any grade: 1 (10.0) n (%)
  TRAE Oedema peripheral, grade 3-4: 0 n (%)
  TRAE Onycholysis, any grade: 0 n (%)
  TRAE Onycholysis, grade 3-4: 0 n (%)
  TRAE Oropharyngeal pain, any grade: 1 (10.0) n (%)
  TRAE Oropharyngeal pain, grade 3-4: 1 (10.0) n (%)
  TRAE PPE, any grade: 1 (10.0) n (%)
  TRAE PPE, grade 3-4: 0 n (%)
  TRAE Paraesthesia, any grade: 0 n (%)
  TRAE Paraesthesia, grade 3-4: 0 n (%)
  TRAE Proteinuria, any grade: 1 (10.0) n (%)
  TRAE Proteinuria, grade 3-4: 0 n (%)
  TRAE Pruritus, any grade: 0 n (%)
  TRAE Pruritus, grade 3-4: 0 n (%)
